Results from patent US20090111801A1, “SUBSTITUTED PYRAZINONE DERIVATIVES FOR USE AS A MEDICINE” (Janssen Pharmaceutica N.V., priority 2006, published 2009).

Experiments:
hα2A receptor = target: T1, hα2A receptor (Homo sapiens, UniProt P08913); assay: Radioligand binding experiment for α2A-adrenoceptor ([3H]raulwolscine, CHO cell membranes); conditions: [3H]raulwolscine binding, read-out: h-α2A pIC50 (converted)
T1 construct: expressed in transfected cells; host or cells: CHO cells, stably transfected; membrane preparation
T1 sequence (P08913 1-465): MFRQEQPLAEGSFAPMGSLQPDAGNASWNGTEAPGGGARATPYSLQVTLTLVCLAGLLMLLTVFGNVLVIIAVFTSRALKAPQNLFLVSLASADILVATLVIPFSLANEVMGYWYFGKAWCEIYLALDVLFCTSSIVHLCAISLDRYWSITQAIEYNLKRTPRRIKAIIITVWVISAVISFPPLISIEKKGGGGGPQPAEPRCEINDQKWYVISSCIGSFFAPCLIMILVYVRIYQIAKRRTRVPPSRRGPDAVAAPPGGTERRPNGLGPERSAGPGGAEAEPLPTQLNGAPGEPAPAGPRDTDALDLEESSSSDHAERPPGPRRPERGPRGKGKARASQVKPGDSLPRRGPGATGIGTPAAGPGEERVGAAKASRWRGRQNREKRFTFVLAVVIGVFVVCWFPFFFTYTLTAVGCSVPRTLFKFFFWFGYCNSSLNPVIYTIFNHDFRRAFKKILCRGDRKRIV

hα2C receptor = target: T2, hα2C receptor (Homo sapiens, UniProt P18825); assay: Radioligand binding experiment for α2C-adrenoceptor ([3H]raulwolscine, CHO cell membranes); conditions: [3H]raulwolscine binding, read-out: h-α2C pIC50 (converted)
T2 construct: expressed in transfected cells; host or cells: CHO cells, stably transfected; membrane preparation
T2 sequence (P18825 1-462): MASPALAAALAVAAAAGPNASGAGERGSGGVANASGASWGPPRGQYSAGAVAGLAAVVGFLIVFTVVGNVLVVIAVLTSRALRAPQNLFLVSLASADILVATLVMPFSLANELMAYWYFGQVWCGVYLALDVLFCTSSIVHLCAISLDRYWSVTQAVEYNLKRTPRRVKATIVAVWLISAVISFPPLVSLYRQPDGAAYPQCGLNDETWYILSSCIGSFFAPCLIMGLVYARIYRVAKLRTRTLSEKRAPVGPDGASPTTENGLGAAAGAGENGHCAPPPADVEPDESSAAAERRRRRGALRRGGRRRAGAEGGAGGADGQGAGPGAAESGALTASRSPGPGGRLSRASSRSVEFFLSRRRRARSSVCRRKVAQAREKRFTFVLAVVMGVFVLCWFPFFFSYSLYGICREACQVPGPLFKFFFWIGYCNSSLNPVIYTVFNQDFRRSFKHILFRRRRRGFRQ

5HT-Transporter = target: T3, 5HT-Transporter (Homo sapiens, UniProt P31645); assay: Binding experiment for the 5HT-transporter ([3H]paroxetine, human platelet membranes); conditions: [3H]paroxetine 0.5 nM, read-out: h-5HTT pIC50 (converted)
T3 construct: Human platelet membranes (Oceanix Biosciences Corporation, Hanover, Md., USA) were thawed; tissue Oceanix Biosciences Corporation, Hanover, Md., USA; host or cells: human platelet membranes
T3 sequence (P31645 whole entry): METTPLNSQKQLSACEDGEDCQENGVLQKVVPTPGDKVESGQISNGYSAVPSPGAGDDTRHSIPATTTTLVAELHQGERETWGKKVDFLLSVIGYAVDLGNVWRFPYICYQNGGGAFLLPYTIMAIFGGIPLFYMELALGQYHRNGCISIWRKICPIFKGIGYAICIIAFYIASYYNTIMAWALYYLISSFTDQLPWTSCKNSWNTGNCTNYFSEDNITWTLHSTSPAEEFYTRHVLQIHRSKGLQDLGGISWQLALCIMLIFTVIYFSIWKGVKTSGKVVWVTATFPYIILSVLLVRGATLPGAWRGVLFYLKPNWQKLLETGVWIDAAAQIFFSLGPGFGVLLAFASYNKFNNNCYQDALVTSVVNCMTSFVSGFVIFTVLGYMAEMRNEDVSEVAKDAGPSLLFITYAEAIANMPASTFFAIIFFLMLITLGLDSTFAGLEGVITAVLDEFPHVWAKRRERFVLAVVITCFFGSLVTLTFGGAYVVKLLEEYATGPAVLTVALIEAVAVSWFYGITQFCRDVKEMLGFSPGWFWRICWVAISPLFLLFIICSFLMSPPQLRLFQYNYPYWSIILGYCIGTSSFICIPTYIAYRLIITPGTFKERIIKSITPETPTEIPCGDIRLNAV
Outline: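 Filter-bound radioactivity from human platelet membranes incubated with [3H]paroxetine and test compound (buffer Tris-HCl 50 mM, 120 mM NaCl, 5 mM KCl) was counted.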

Structure (SMILES) | IC50 (hα2A receptor) [nM] | IC50 (hα2C receptor) [nM] | IC50 (5HT-Transporter) [nM]
COc1cccc(Cn2ccnc(NC3CCN(C/C(C)=C/c4ccccc4)CC3)c2=O)c1 [3-10] | 79.4 | 31.6 | 794
C/C(=C\c1ccccc1)CN1CCN(c2nccn(CC(=O)c3ccc(-c4ccccc4)cc3)c2=O)CC1 [12-6] | 398 | 251 | 2000
C/C(=C\c1ccccc1)CN1CCN(c2nccn(C/C=C/c3ccccc3)c2=O)CC1 [12-3] | 398 | 126 | 1260
C/C(=C\c1ccccc1)CN1CCC(Nc2nccn(CC(=O)N(Cc3ccccc3)c3ccccc3)c2=O)CC1 [1-69] | 158 | 39.8 | 794
C/C(=C\c1ccccc1)CN1CCN(c2nccn(CCOc3ccccc3)c2=O)CC1 [10-2] | 251 | 100 | 1260
C/C(=C\c1ccccc1)CN1CCC(Nc2nccn(Cc3ccc(CNC(=O)NCCc4ccccc4)cc3)c2=O)CC1 [1-125] | 158 | 63.1 | 501
C/C(=C\c1ccccc1)CN1CCC(Nc2nccn(Cc3ccc(NCCN(C)C)cc3)c2=O)CC1 [1-104] | 12.6 | 2.51 | 200
C/C(=C\c1ccccc1)CN1CCN(c2nccn(CCCc3ccccc3)c2=O)CC1 [12-2] | 200 | 63.1 | 1260
C/C(=C\c1ccccc1)CN1CCC(Nc2nccn(Cc3cccc(Br)c3)c2=O)CC1 [5-15] | 79.4 | 25.1 | 398
C/C(=C\c1ccccc1)CN1CCC(Nc2nccn(Cc3ccc(CNC(=O)Cc4ccccc4)cc3)c2=O)CC1 [1-82] | 79.4 | 25.1 | 251
O=c1c(NC2CCN(C/C=C/c3ccccc3)CC2)nccn1Cc1ccncc1 [16-20] | 2000 | 251 | > 10000
C/C(=C\c1ccccc1)CN1CCC(Nc2nccn(-c3ccc(-c4ccccc4)cc3)c2=O)CC1 [5-30] | 25.1 | 7.94 | 398
C/C(=C\c1ccccc1)CN1CCC(Nc2nccn(-c3ccc(C(=O)NCCN4CCCCC4)cc3)c2=O)CC1 [1-140] | 39.8 | 3.98 | 200
C/C(=C\c1ccccc1)CN1CCC(Nc2nccn(-c3ccc(C(=O)N(CCN(C)C)Cc4ccccc4)cc3)c2=O)CC1 [1-112] | 39.8 | 3.16 | 200
C/C(=C\c1ccccc1)CN1CCC(Nc2nccn(Cc3ccc(CNS(=O)(=O)c4c(C)noc4C)cc3)c2=O)CC1 [1-171] | 158 | 20 | 794
C/C(=C\c1ccccc1)CN1CCC(Nc2nccn(CCCN(C)CC(=O)c3ccccc3)c2=O)CC1 [1-84] | 100 | 10 | 1260
C/C(=C\c1ccccc1)CN1CCC(Nc2nccn(CC(=O)N(CCN(C)C)Cc3ccc(F)cc3)c2=O)CC1 [1-113] | 126 | 3.98 | 7940
C/C(=C\c1ccccc1)CN1CCC(Nc2nccn(Cc3ccco3)c2=O)CC1 [6-2] | 126 | 25.1 | 1260
COCCN(C)C(=O)c1ccc(-n2ccnc(NC3CCN(C/C(C)=C/c4ccccc4)CC3)c2=O)cc1 [1-27] | 31.6 | 2.51 | 501
C/C(=C\c1ccccc1)CN1CCC(Nc2nccn(Cc3ccc(CNC(=O)NCc4ccccc4)cc3)c2=O)CC1 [1-124] | 251 | 63.1 | 501
C/C(=C\c1ccccc1)CN1CCC(Nc2nccn(-c3cccc(N4CCCCC4)c3)c2=O)CC1 [2-6] | 3.98 | 2.51 | 316
C/C(=C\c1ccccc1)CN1CCC(Nc2nccn(CCCNc3ccccc3)c2=O)CC1 [1-39] | 79.4 | 7.94 | 200
C/C(=C\c1ccccc1)CN1CCC(Nc2nccn(CCCCN3C(=O)c4ccccc4C3=O)c2=O)CC1 [2-51] | 100 | 3.98 | 158
COc1cc(CNC(=O)NCc2ccc(Cn3ccnc(NC4CCN(C/C(C)=C/c5ccccc5)CC4)c3=O)cc2)cc(OC)c1 [1-126] | 251 | 39.8 | 501
C/C(=C\c1ccccc1)CN1CCC(Nc2nccn(-c3cccc(CN4CCCCC4)c3)c2=O)CC1 [2-9] | 0.631 | 0.2 | 200
C/C(=C\c1ccccc1)CN1CCC(Nc2nccn(Cc3ccc(CN)cc3)c2=O)CC1 [1-7] | 15.8 | 3.16 | 794
COC(=O)c1ccc(Cn2ccnc(NC3CCN(C/C(C)=C/c4ccccc4)CC3)c2=O)cc1 [3-14] | 79.4 | 63.1 | 794
C/C(=C\c1ccccc1)CN1CCC(Nc2nccn(CC(=O)N(C)CCN(C)Cc3ccccc3)c2=O)CC1 [1-111] | 50.1 | 0.794 | 3980
C/C(=C\c1ccccc1)CN1CCN(c2nccn(Cc3ccccc3)c2=O)CC1 [12-1] | 63.1 | 63.1 | 3160

Now from value to compound:

IC50 (hα2A receptor) [nM] | IC50 (hα2C receptor) [nM] | IC50 (5HT-Transporter) [nM] | Structure (SMILES)
126 | 15.8 | 794 | CCOC(=O)CCCCn1ccnc(NC2CCN(C/C(C)=C/c3ccccc3)CC2)c1=O [3-17]
63.1 | 15.8 | 3980 | CCn1ccnc(NC2CCN(C/C(C)=C/c3ccccc3)CC2)c1=O [7-3]
100 | 10 | 501 | C/C(=C\c1ccccc1)CN1CCC(Nc2nccn(-c3ccc(C(=O)N4CCN(C)CC4)cc3)c2=O)CC1 [2-21]
1000 | 200 | > 10000 | COC(=O)Cn1ccnc(NC2CCN(C/C=C/c3ccccc3)CC2)c1=O [16-10]
100 | 6.31 | 1580 | C/C(=C\c1ccccc1)CN1CCC(Nc2nccn(CC(=O)NCc3cccnc3)c2=O)CC1 [1-141]
50.1 | 3.16 | 3980 | CNCCCn1ccnc(NC2CCN(C/C(C)=C/c3ccccc3)CC2)c1=O [1-8]
200 | 12.6 | 2510 | CCCC(=O)NCCCn1ccnc(NC2CCN(C/C(C)=C/c3ccccc3)CC2)c1=O [1-32]
126 | 39.8 | 2000 | C/C(=C\c1ccccc1)CN1CCC(Nc2nccn(CC(=O)Nc3ccc(N4CCOCC4)cc3)c2=O)CC1 [1-45]
100 | 3.16 | 5010 | C=CCN1CCN(C(=O)Cn2ccnc(NC3CCN(C/C(C)=C/c4ccccc4)CC3)c2=O)CC1 [2-24]
316 | 39.8 | 3980 | COCCOCCn1ccnc(NC2CCN(C/C(C)=C/c3ccccc3)CC2)c1=O [3-21]
12.6 | 1.58 | 501 | C/C(=C\c1ccccc1)CN1CCC(Nc2nccn(CC(=O)N(CCN3CCCC3)CC3CCCCC3)c2=O)CC1 [1-134]
63.1 | 6.31 | 2000 | C/C(=C\c1ccccc1)CN1CCC(Nc2nccn(CCCN)c2=O)CC1 [1-1]
79.4 | 5.01 | 2510 | C#CCN(C)C(=O)Cn1ccnc(NC2CCN(C/C(C)=C/c3ccccc3)CC2)c1=O [1-28]
12.6 | 0.794 | 794 | C/C(=C\c1ccccc1)CN1CCC(Nc2nccn(CC(=O)N(CCN3CCCC3)Cc3ccccc3)c2=O)CC1 [1-135]
